Data on 14 compounds can be found in ChEMBL document CHEMBL5375986, “Discovery of Lead 2-Thiazolylhydrazones with Broad-Spectrum and Potent Antifungal Activity” (J Med Chem, 2023).

≈ marks a conversion by molar mass, not a printed value.

One experiment concerns Nakaseomyces glabratus. As to the kind of experiment: Antifungal activity against Candida glabrata ATCC 2001 assessed as inhibition of fungal growth incubated for 24 to 48 hrs by CLSI protocol based broth microdilution method. In kind it is functional. To be noted: time 24-48 hrs. In general terms: Broth dilution looks for growth in wells or tubes with falling amounts of substance.

For another experiment, the system named is Candida tropicalis. Put plainly: Antifungal activity against Candida tropicalis ATCC 750 assessed as inhibition of fungal growth incubated for 24 to 48 hrs by CLSI protocol based broth microdilution method. In kind it is functional. To be noted: time 24-48 hrs.
A short description of experiment [1]: Antifungal activity against Cryptococcus gattii ATCC 24065 assessed as inhibition of fungal growth incubated for 24 to 48 hrs by CLSI protocol based broth microdilution method. It is filed as functional, Cryptococcus gattii VGI. The conditions noted are these: time 24-48 hrs.
Another experiment has as its system [Candida] auris. Put plainly: Antifungal activity against Candida auris COLO 01 assessed as inhibition of fungal growth incubated for 24 to 48 hrs by CLSI protocol based broth microdilution method. To be noted: Candidozyma auris, time 24-48 hrs. It is filed as functional.
The next experiment deals with Pichia kudriavzevii. Put plainly: Antifungal activity against Candida krusei ATCC 20298 assessed as inhibition of fungal growth incubated for 24 to 48 hrs by CLSI protocol based broth microdilution method. It is filed as functional. To be noted: time 24-48 hrs.
In a further experiment the test system is Candida albicans. As to the kind of experiment: Antifungal activity against Candida albicans SC5314 assessed as inhibition of fungal growth incubated for 24 to 48 hrs by CLSI protocol based broth microdilution method. It is filed as functional. The conditions noted are these: time 24-48 hrs.
The subject of a further experiment is Candida parapsilosis. As to the kind of experiment: Antifungal activity against Candida parapsilosis ATCC 22019 assessed as inhibition of fungal growth incubated for 24 to 48 hrs by CLSI protocol based broth microdilution method. In kind it is functional. The conditions noted are these: Lodderomyces parapsilosis, time 24-48 hrs.
The test system of another experiment is Cryptococcus neoformans. Put plainly: Antifungal activity against Cryptococcus neoformans ATCC 24067 assessed as inhibition of fungal growth incubated for 24 to 48 hrs by CLSI based broth microdilution method. It is filed as functional. The conditions noted are these: time 24-48 hrs.

As a reminder, the MIC is the least concentration at which growth counts as inhibited. Regarding `CCOC(=O)/C(C)=N/Nc1nc(-c2ccccc2)cs1`, the MIC (in the experiment with Nakaseomyces glabratus; with Candida tropicalis; in experiment [1]; in experiment [Candida] auris; in the experiment with Pichia kudriavzevii; in the experiment on Candida albicans) was more than 125 µM each time. Also, the MIC in the experiment with Candida parapsilosis and with Cryptococcus neoformans was more than 125 µM each time.

Turning to `C/C(=N\Nc1nc(-c2ccc(C)cc2)cs1)C(=O)O`, the MIC with Candida tropicalis is 114 µM (≈ 31.3 µg/mL); in experiment [Candida] auris, 14.2 µM (≈ 3.91 µg/mL); with Pichia kudriavzevii, 28.4 µM (≈ 7.82 µg/mL); in the experiment on Candida albicans, 14.2 µM (≈ 3.91 µg/mL).

Regarding `CCOC(=O)Cc1csc(NN=C(C)C(=O)O)n1`, the MIC with Candida tropicalis is more than 125 µM; in experiment [1] it was more than 125 µM; in experiment [Candida] auris, 57.6 µM (≈ 15.6 µg/mL); in the experiment on Pichia kudriavzevii, 28.8 µM (≈ 7.81 µg/mL); in the experiment with Candida albicans, 57.6 µM (≈ 15.6 µg/mL); in the experiment with Cryptococcus neoformans, more than 125 µM.

As to `C/C(=N\Nc1nc(-c2ccccc2)cs1)C(=O)O`, the MIC in the experiment with Candida tropicalis was 59.8 µM (≈ 15.6 µg/mL); in experiment [Candida] auris, 29.9 µM (≈ 7.81 µg/mL); in the experiment on Pichia kudriavzevii, 29.9 µM (≈ 7.81 µg/mL); in the experiment on Candida albicans it was 29.9 µM (≈ 7.81 µg/mL).

Regarding `C/C(=N\Nc1nc(-c2ccc(Br)cc2)cs1)C(=O)O`, the MIC with Candida tropicalis is 91.9 µM (≈ 31.3 µg/mL); in experiment [1] it was 2.4 µM (≈ 0.816 µg/mL); in experiment [Candida] auris it was 23 µM (≈ 7.82 µg/mL); in the experiment on Pichia kudriavzevii, 23 µM (≈ 7.82 µg/mL); in the experiment with Candida albicans, 23 µM (≈ 7.82 µg/mL); with Cryptococcus neoformans, 2.4 µM (≈ 0.816 µg/mL).

With `C/C(=N\Nc1nc(-c2ccc(C#N)cc2)cs1)C(=O)O`, the MIC in the experiment on Candida tropicalis was more than 125 µM; in experiment [1], 175 µM (≈ 50 µg/mL); in experiment [Candida] auris it was 13.7 µM (≈ 3.92 µg/mL); in the experiment on Pichia kudriavzevii, 109 µM (≈ 31.3 µg/mL); in the experiment on Candida albicans, 109 µM (≈ 31.3 µg/mL); with Cryptococcus neoformans, 22 µM (≈ 6.3 µg/mL).

`COc1ccc(-c2csc(N/N=C(\C)C(=O)O)n2)cc1`: the MIC with Candida tropicalis turned out to be 56.6 µM (≈ 16.5 µg/mL); in experiment [Candida] auris it was 13.4 µM (≈ 3.9 µg/mL); in the experiment on Pichia kudriavzevii it was 56.6 µM (≈ 16.5 µg/mL); in the experiment with Candida albicans it was 26.8 µM (≈ 7.81 µg/mL).

Consider `C/C(=N\Nc1nc(-c2ccc(F)cc2)cs1)C(=O)O`, for which the MIC with Candida tropicalis came to 112 µM (≈ 31.3 µg/mL); in experiment [1], 5.7 µM (≈ 1.59 µg/mL); in experiment [Candida] auris, 7 µM (≈ 1.96 µg/mL); in the experiment with Pichia kudriavzevii, 28 µM (≈ 7.82 µg/mL); in the experiment on Candida albicans, 28 µM (≈ 7.82 µg/mL); in the experiment on Cryptococcus neoformans, 11.1 µM (≈ 3.1 µg/mL).

As to `C/C(=N\Nc1nc(-c2ccc(Cl)cc2)cs1)C(=O)O`, the MIC in the experiment on Candida tropicalis worked out at 106 µM (≈ 31.3 µg/mL); in experiment [1], 5.4 µM (≈ 1.6 µg/mL); in experiment [Candida] auris, 6.6 µM (≈ 1.95 µg/mL); with Pichia kudriavzevii, 26.4 µM (≈ 7.81 µg/mL); in the experiment on Candida albicans it was 26.4 µM (≈ 7.81 µg/mL); in the experiment with Cryptococcus neoformans, 5.4 µM (≈ 1.6 µg/mL).

On to `CCOC(=O)C(C)=NNc1nc(-c2ccc(F)cc2)cs1`, for which the MIC is more than 125 µM with Nakaseomyces glabratus; more than 125 µM in the experiment with Candida tropicalis; more than 125 µM in experiment [1]; 50.8 µM (≈ 15.6 µg/mL) in experiment [Candida] auris; 102 µM (≈ 31.3 µg/mL) in the experiment with Pichia kudriavzevii; more than 125 µM in the experiment with Candida albicans. Further, the MIC with Candida parapsilosis and with Cryptococcus neoformans was more than 125 µM in each case.

`CCOC(=O)/C(C)=N/Nc1nc(-c2ccc(C#N)cc2)cs1`: the minimum inhibitory concentration (MIC) is more than 125 µM with Candida tropicalis; 24.8 µM (≈ 7.8 µg/mL) in experiment [1]; 24.8 µM (≈ 7.8 µg/mL) in experiment [Candida] auris; 99.4 µM (≈ 31.2 µg/mL) in the experiment with Pichia kudriavzevii; 49.7 µM (≈ 15.6 µg/mL) in the experiment with Candida albicans; 24.8 µM (≈ 7.8 µg/mL) in the experiment with Candida parapsilosis. Besides, the minimal inhibitory concentration (MIC) in the experiment on Cryptococcus neoformans was 49.7 µM (≈ 15.6 µg/mL).

As to `C/C(CCC(=O)O)=N\Nc1nc(-c2ccc(C)cc2)cs1`, the MIC with Candida tropicalis came out at 51.4 µM (≈ 15.6 µg/mL); in experiment [1], 0.3 µM (≈ 0.091 µg/mL); in experiment [Candida] auris it was 3.2 µM (≈ 0.971 µg/mL); with Pichia kudriavzevii it was 6.4 µM (≈ 1.94 µg/mL); in the experiment on Candida albicans, 6.4 µM (≈ 1.94 µg/mL); in the experiment on Cryptococcus neoformans it was 0.7 µM (≈ 0.212 µg/mL).

For `CC[C@H](C)C[C@H](C)CCCCCCCCC(=O)N[C@H]1C[C@@H](O)[C@@H](NCCN)NC(=O)[C@@H]2[C@@H](O)CCN2C(=O)[C@H]([C@H](O)CCN)NC(=O)[C@H]([C@H](O)[C@@H](O)c2ccc(O)cc2)NC(=O)[C@@H]2C[C@@H](O)CN2C(=O)[C@H]([C@@H](C)O)NC1=O` [CASPOFUNGIN], the MIC in experiment [Candida] auris amounted to 0.1 µM (≈ 0.109 µg/mL).

For `OC(Cn1cncn1)(Cn1cncn1)c1ccc(F)cc1F` [FLUCONAZOLE], the MIC with Nakaseomyces glabratus stood at 13.1 µM (≈ 4.01 µg/mL); in the experiment on Candida tropicalis it was 0.8 µM (≈ 0.245 µg/mL); in experiment [1], 52.2 µM (≈ 16 µg/mL); in the experiment with Pichia kudriavzevii it was 104 µM (≈ 32 µg/mL); with Candida albicans, 1.6 µM (≈ 0.49 µg/mL); in the experiment on Candida parapsilosis, 3.3 µM (≈ 1.01 µg/mL).
